Reference: ChEMBL document CHEMBL3885881, “DrugMatrix”

Organism: Rattus norvegicus
Experiment: DrugMatrix - Regimen: Daily Repeat
Format: toxicity, organism-based, Sprague-Dawley
Set-up: regimen Daily Repeat, gender Male, age 6-8 weeks
Settings: in vivo, po, route oral GAVAGE, […]; for ABSOLUTE BASOPHIL / ABSOLUTE EOSINOPHIL / ABSOLUTE LYMPHOCYTE / ABSOLUTE MONOCYTE / ABSOLUTE SEGMENTED NEUTROPHIL / BASOPHIL / EOSINOPHIL / ERYTHROCYTE COUNT / HEMATOCRIT / HEMOGLOBIN / LEUKOCYTE COUNT / LYMPHOCYTE / MEAN CORPUSCULAR HEMOGLOBIN / MEAN CORPUSCULAR HEMOGLOBIN CONCENTRATION / MEAN CORPUSCULAR VOLUME / MONOCYTE / NEUTROPHIL / NUCLEATED RED BLOOD CELLS / PLATELET COUNT: tissue Blood; for ALANINE AMINOTRANSFERASE / ALBUMIN / ALKALINE PHOSPHATASE / ASPARTATE AMINOTRANSFERASE / BLOOD UREA NITROGEN / CARBON DIOXIDE / CHLORIDE / CHOLESTEROL / CREATINE PHOSPHOKINASE / CREATININE / GLUCOSE / LACTATE DEHYDROGENASE / LIPASE / PHOSPHORUS / POTASSIUM / SODIUM / TOTAL BILIRUBIN / TOTAL PROTEIN / URIC ACID: tissue Plasma
[1] = 0 mg/kg, 72 h, dose level Control, time 3 day
[2] = 0 mg/kg, 120 h, dose level Control, time 5 day
[3] = 30 mg/kg, 72 h, dose level Low, time 3 day
[4] = 30 mg/kg, 120 h, dose level Low, time 5 day

SMILES: Cc1ccc(-c2cc(C(F)(F)F)nn2-c2ccc(S(N)(=O)=O)cc2)cc1 [CELECOXIB]
- ABSOLUTE BASOPHIL [1]: 0 CELLS/uL
- ABSOLUTE EOSINOPHIL [1]: 104.17 CELLS/uL
- ABSOLUTE LYMPHOCYTE [1]: 14547 CELLS/uL
- ABSOLUTE MONOCYTE [1]: 292 CELLS/uL
- ABSOLUTE SEGMENTED NEUTROPHIL [1]: 1640.17 CELLS/uL
- BASOPHIL [1]: 0%
- EOSINOPHIL [1]: 0.67%
- ERYTHROCYTE COUNT [1]: 5.35 x10E6/uL
- HEMATOCRIT [1]: 33.67%
- HEMOGLOBIN [1]: 13.38 G/DL
- LEUKOCYTE COUNT [1]: 16.58 x10E3/uL
- LYMPHOCYTE [1]: 87.5%
- MEAN CORPUSCULAR HEMOGLOBIN [1]: 25.05 pg
- MEAN CORPUSCULAR HEMOGLOBIN CONCENTRATION [1]: 39.78 G/DL
- MEAN CORPUSCULAR VOLUME [1]: 62.97 fL
- MONOCYTE [1]: 1.83%
- NEUTROPHIL [1]: 10%
- NUCLEATED RED BLOOD CELLS [1]: 0 /100WBC
- PLATELET COUNT [1]: 1274.5 x10E3/uL
- ALANINE AMINOTRANSFERASE [1]: 76.83 u/L
- ALBUMIN [1]: 3.97 G/DL
- ALKALINE PHOSPHATASE [1]: 347 u/L
- ASPARTATE AMINOTRANSFERASE [1]: 97.17 u/L
- BLOOD UREA NITROGEN [1]: 14.33 mg/dL
- CARBON DIOXIDE [1]: 25.5 mmol/L
- CHLORIDE [1]: 100.33 MEQ/L
- CHOLESTEROL [1]: 68.67 mg/dL
- CREATINE PHOSPHOKINASE [1]: 659.17 u/L
- CREATININE [1]: 0.32 mg/dL
- GLUCOSE [1]: 160.67 mg/dL
- LACTATE DEHYDROGENASE [1]: 271.5 u/L
- LIPASE [1]: 11.67 u/L
- PHOSPHORUS [1]: 10.65 mg/dL
- POTASSIUM [1]: 5.95 MEQ/L
- SODIUM [1]: 139.65 MEQ/L
- TOTAL BILIRUBIN [1]: 0.2 mg/dL
- TOTAL PROTEIN [1]: 5.72 G/DL
- URIC ACID [1]: 1.37 mg/dL
- ABSOLUTE BASOPHIL [2]: 0 CELLS/uL
- ABSOLUTE EOSINOPHIL [2]: 331.5 CELLS/uL
- ABSOLUTE LYMPHOCYTE [2]: 15021.67 CELLS/uL
- ABSOLUTE MONOCYTE [2]: 376.5 CELLS/uL
- ABSOLUTE SEGMENTED NEUTROPHIL [2]: 3070.33 CELLS/uL
- BASOPHIL [2]: 0%
- EOSINOPHIL [2]: 1.83%
- ERYTHROCYTE COUNT [2]: 5.24 x10E6/uL
- HEMATOCRIT [2]: 33.22%
- HEMOGLOBIN [2]: 13.2 G/DL
- LEUKOCYTE COUNT [2]: 18.8 x10E3/uL
- LYMPHOCYTE [2]: 79.67%
- MEAN CORPUSCULAR HEMOGLOBIN [2]: 25.17 pg
- MEAN CORPUSCULAR HEMOGLOBIN CONCENTRATION [2]: 39.73 G/DL
- MEAN CORPUSCULAR VOLUME [2]: 63.38 fL
- MONOCYTE [2]: 2%
- NEUTROPHIL [2]: 16.5%
- NUCLEATED RED BLOOD CELLS [2]: 0 /100WBC
- PLATELET COUNT [2]: 1142.67 x10E3/uL
- ALANINE AMINOTRANSFERASE [2]: 52.5 u/L
- ALBUMIN [2]: 3.9 G/DL
- ALKALINE PHOSPHATASE [2]: 284.5 u/L
- ASPARTATE AMINOTRANSFERASE [2]: 81.33 u/L
- BLOOD UREA NITROGEN [2]: 16 mg/dL
- CARBON DIOXIDE [2]: 25.33 mmol/L
- CHLORIDE [2]: 99.5 MEQ/L
- CHOLESTEROL [2]: 74.83 mg/dL
- CREATINE PHOSPHOKINASE [2]: 448.33 u/L
- CREATININE [2]: 0.37 mg/dL
- GLUCOSE [2]: 164.17 mg/dL
- LACTATE DEHYDROGENASE [2]: 290.67 u/L
- LIPASE [2]: 6.83 u/L
- PHOSPHORUS [2]: 11.5 mg/dL
- POTASSIUM [2]: 6.28 MEQ/L
- SODIUM [2]: 139.5 MEQ/L
- TOTAL BILIRUBIN [2]: 0.13 mg/dL
- TOTAL PROTEIN [2]: 5.55 G/DL
- URIC ACID [2]: 1.12 mg/dL
- ABSOLUTE BASOPHIL [3]: 0 CELLS/uL
- ABSOLUTE EOSINOPHIL [3]: 104 CELLS/uL
- ABSOLUTE LYMPHOCYTE [3]: 15747.67 CELLS/uL
- ABSOLUTE MONOCYTE [3]: 360 CELLS/uL
- ABSOLUTE SEGMENTED NEUTROPHIL [3]: 1788.33 CELLS/uL
- BASOPHIL [3]: 0%
- EOSINOPHIL [3]: 0.67%
- ERYTHROCYTE COUNT [3]: 5.61 x10E6/uL
- HEMATOCRIT [3]: 36.13%
- HEMOGLOBIN [3]: 13.97 G/DL
- LEUKOCYTE COUNT [3]: 18 x10E3/uL
- LYMPHOCYTE [3]: 87.33%
- MEAN CORPUSCULAR HEMOGLOBIN [3]: 24.9 pg
- MEAN CORPUSCULAR HEMOGLOBIN CONCENTRATION [3]: 38.63 G/DL
- MEAN CORPUSCULAR VOLUME [3]: 64.4 fL
- MONOCYTE [3]: 2%
- NEUTROPHIL [3]: 10%
- NUCLEATED RED BLOOD CELLS [3]: 0.33 /100WBC
- PLATELET COUNT [3]: 1151.67 x10E3/uL
- ALANINE AMINOTRANSFERASE [3]: 77 u/L
- ALBUMIN [3]: 4.2 G/DL
- ALKALINE PHOSPHATASE [3]: 443 u/L
- ASPARTATE AMINOTRANSFERASE [3]: 79.33 u/L
- BLOOD UREA NITROGEN [3]: 10.67 mg/dL
- CARBON DIOXIDE [3]: 22.67 mmol/L
- CHLORIDE [3]: 102.67 MEQ/L
- CHOLESTEROL [3]: 51 mg/dL
- CREATINE PHOSPHOKINASE [3]: 260 u/L
- CREATININE [3]: 0.12 mg/dL
- GLUCOSE [3]: 164.33 mg/dL
- LACTATE DEHYDROGENASE [3]: 234.67 u/L
- LIPASE [3]: 10.67 u/L
- PHOSPHORUS [3]: 11.63 mg/dL
- POTASSIUM [3]: 6.08 MEQ/L
- SODIUM [3]: 142.6 MEQ/L
- TOTAL BILIRUBIN [3]: 0.13 mg/dL
- TOTAL PROTEIN [3]: 6.07 G/DL
- URIC ACID [3]: 1.27 mg/dL
- ABSOLUTE BASOPHIL [4]: 0 CELLS/uL
- ABSOLUTE EOSINOPHIL [4]: 252.67 CELLS/uL
- ABSOLUTE LYMPHOCYTE [4]: 15009.33 CELLS/uL
- ABSOLUTE MONOCYTE [4]: 640.67 CELLS/uL
- ABSOLUTE SEGMENTED NEUTROPHIL [4]: 3164 CELLS/uL
- BASOPHIL [4]: 0%
- EOSINOPHIL [4]: 1.33%
- ERYTHROCYTE COUNT [4]: 5.76 x10E6/uL
- HEMATOCRIT [4]: 36.13%
- HEMOGLOBIN [4]: 14 G/DL
- LEUKOCYTE COUNT [4]: 19.07 x10E3/uL
- LYMPHOCYTE [4]: 78.67%
- MEAN CORPUSCULAR HEMOGLOBIN [4]: 24.33 pg
- MEAN CORPUSCULAR HEMOGLOBIN CONCENTRATION [4]: 38.73 G/DL
- MEAN CORPUSCULAR VOLUME [4]: 62.87 fL
- MONOCYTE [4]: 3.33%
- NEUTROPHIL [4]: 16.67%
- NUCLEATED RED BLOOD CELLS [4]: 0 /100WBC
- PLATELET COUNT [4]: 1265.67 x10E3/uL
- ALANINE AMINOTRANSFERASE [4]: 70.67 u/L
